Experimental data from patent US20120329867A1 (SANOFI, priority 2010, published 2012).

Tested on: AF/AFL patients
Assay: EURIDIS and ADONIS post hoc analysis: adverse events and ECG changes by timing of amiodarone stop
Type: in vivo, human
Conditions: for QTc-Fridericia > or = 500 msec: unit assumed
Description: Methods: In EURIDIS and ADONIS studies mentioned in the article of the New England Journal of Medicine, 357, 10, Sep.
Results: Dronedarone decreased AF/AFL recurrence compared to placebo (HR=0.64 [95% CI 0.44-0.95], P=0.022) in this subgroup. […] All the results are included in the table 1 below.
In the table above, “A” means Amiodarone, “D” means” dronedarone, “PI” means Placebo, “n” is the number of patients tested with “PI” or “D”.

[1] = A stopped more than 2 days before randomization, n = 35
[2] = A stopped within 2 days before randomization, n = 98
[3] = No amiodarone treatment before randomization, n = 680

## CCCCc1oc2ccc(NS(C)(=O)=O)cc2c1C(=O)c1ccc(OCCCN(CCCC)CCCC)cc1 [Dronedarone, 2-n-Butyl-3-[4-(3-di-n-butylaminopropoxy)benzoyl]-5-methylsul phonamidobenzofuran]
[1]
  Bradyarrhythmia (%) (under adverse events with drug discontinuation): 0%
  Bradyarrhythmia (%) (under serious adverse events): 0%
  PR-interval > or = 200 msec and increase > or = 20 msec versus baseline: 22.9
  Rate of Adverse Events with dronedarone discontinuation (%): 20.0%
  Rate of Serious adverse events (%): 17.1%
  QTc-Fridericia > or = 500 msec: 14.3%
[2]
  Bradyarrhythmia (%) (under adverse events with drug discontinuation): 3.1%
  Bradyarrhythmia (%) (under serious adverse events): 1%
  PR-interval > or = 200 msec and increase > or = 20 msec versus baseline: 25.8
  Rate of Adverse Events with dronedarone discontinuation (%): 8.2%
  Rate of Serious adverse events (%): 15.3%
  QTc-Fridericia > or = 500 msec: 7.9%
[3]
  Bradyarrhythmia (%) (under adverse events with drug discontinuation): 0.7%
  Bradyarrhythmia (%) (under serious adverse events): 1.3%
  PR-interval > or = 200 msec and increase > or = 20 msec versus baseline: 28.0
  Rate of Adverse Events with dronedarone discontinuation (%): 9.1%
  Rate of Serious adverse events (%): 13.7%
  QTc-Fridericia > or = 500 msec: 4.4%
Small patient cohort switched rapidly from A to D
  Tolerability: good tolerability
